Experimental data taken from the NIST ThermoML archive (doi:10.1016/j.tca.2016.03.033).
± gives the expanded uncertainty stated by the source.

Assays:
[1] = xn = mol fraction of the nth substance listed; conditions: Ring tensiometer
[2] = Ring tensiometer

[F][La]([F])[F] [lanthanum trifluoride] + [F-].[Li+]
surface tension liquid-gas [mN/m], [1]
Conditions	1223 K	1248 K	1273 K	1298 K	1323 K	1348 K	1373 K	1398 K	1423 K
x1 = 0.2	257.3 ± 4.2	254.9 ± 4.1	251.8 ± 4.1	249.3 ± 4	247 ± 4	244.4 ± 4	242.1 ± 3.9	239.2 ± 3.9	236.9 ± 3.9
x1 = 0.25	264.7 ± 4.3	262.1 ± 4.2	259 ± 4.2	256.3 ± 4.2	253.6 ± 4.1	251.2 ± 4.1	248.8 ± 4	246.7 ± 4	243.9 ± 4
x1 = 0.3	272.2 ± 4.4	269.5 ± 4.4	267.2 ± 4.3	264.9 ± 4.3	262.1 ± 4.3	258.9 ± 4.2	256.5 ± 4.2	253.8 ± 4.1	251.3 ± 4.1
x1 = 0.35	–	–	–	274.2 ± 4.4	271.4 ± 4.4	268.3 ± 4.4	265 ± 4.3	262.2 ± 4.3	259.8 ± 4.2
x1 = 0.4	–	–	–	–	281.7 ± 4.6	279.1 ± 4.5	276.5 ± 4.5	274 ± 4.5	270.9 ± 4.4

[F][Nd]([F])[F] [neodymium fluoride] + [F-].[Li+]
surface tension liquid-gas [mN/m], [1]
Conditions	1223 K	1248 K	1273 K	1298 K	1323 K	1348 K	1373 K	1398 K	1423 K
x1 = 0.2	249.1 ± 4.1	247.2 ± 4	244.3 ± 4	241.9 ± 3.9	239.6 ± 3.9	237.3 ± 3.9	235.2 ± 3.8	232.9 ± 3.8	230.8 ± 3.8
x1 = 0.25	258.3 ± 4.2	255.7 ± 4.2	253.5 ± 4.1	250.9 ± 4.1	249.3 ± 4.1	246.3 ± 4	243.6 ± 4	240.4 ± 3.9	239.1 ± 3.9
x1 = 0.3	267.8 ± 4.4	264.9 ± 4.3	262.7 ± 4.3	259.5 ± 4.2	257 ± 4.2	254.5 ± 4.1	251.6 ± 4.1	249.3 ± 4.1	246.9 ± 4
x1 = 0.35	279.2 ± 4.5	276.8 ± 4.5	273.3 ± 4.4	270.4 ± 4.4	268.1 ± 4.4	266 ± 4.3	262.7 ± 4.3	260.4 ± 4.2	257.3 ± 4.2
x1 = 0.4	–	–	284.1 ± 4.6	280.7 ± 4.6	279.6 ± 4.5	276.8 ± 4.5	274.1 ± 4.5	272.1 ± 4.4	268.2 ± 4.4

[Cl-].[K+] [potassium chloride]
Conditions	surface tension liquid-gas [mN/m]
[2], 1230 K	86.14 ± 1.5

[F-].[Na+] [sodium fluoride]
Conditions	surface tension liquid-gas [mN/m]
[2], 1325 K	187.14 ± 3.1
